Several values for one entry are separate records, joined by “and”; a condition that tells them apart may be missing. Equal values may be shown once.
Legend:
[1] = test system: MCT (cutaneous and subcutaneous); assay: Example 5: Compound 1 injection with oral prednisolone and antihistamine co-therapy, RECIST v.1.1 tumor response; format: in vivo, Canis lupus familiaris (dog); conditions: 1 mg/kg/day, 24 h pre-treatment and 7 days post-treatment
Excerpt: This study investigates the efficacy and safety of Compound 1 injection for MCT treatment in the presence of corticosteroids administered under defined clinical situations.
Dogs were selected for the study if they met the criteria in Table 1 (Example 1) but where the dog has at least one MCT.
Wherever possible, the tumor and a 2 cm border surrounding the tumor was shaved prior to treatment. To deliver the drug, the needle of the dosing syringe was inserted into the tumor at the injection point and moved in a radial manner in 2- and 3-dimensions with drug delivered to the tumor mass. Study dogs were clinically examined at 2-4 and 24 hours, and 7 (+2), 14 (+2) and 28 (+2) days post-treatment (and unscheduled visits at attending veterinarian discretion).
(§1) Each supervising veterinarian was given latitude to provide and record prophylactic and supportive medications as deemed appropriate for managing potential paraneoplastic events and tumor site necrosis following Compound 1 treatment. However, prednisolone and antihistamines were used as co-therapy. Prednisolone therapy commenced on Day −1 and continued for a further 7 days. H1 and H2 antihistamine therapy (chlorpheniramine and famotidine respectively) commenced on the morning of drug treatment and continued for a further 6 days (see Table 23).
(§2) RECIST v.1.1 results are summarised in Table 28 which also includes a measure of neoadjuvant prednisolone action (potential tumor shrinkage) between screening and immediate pre-treatment tumor evaluation. Sixteen (16) dogs and eighteen (18) tumors were treated. Raw data for RECIST assessment was collected on Day 0 (immediately pre-treatment) and on Day 28 for fifteen (15) cases. […] With the remaining three (3) cases (C05-T-18, C05-V-01, and C05-V-02), the dogs were not available on Day 28 for RECIST assessment. For dog C05-T-18, the injection site was measured as CR on Days 21 and 37. […] For dog C05-V-01, the injection site was measured as PR on Days 21 and 37 (55% and 60% RECIST reduction respectively). […] For dog […], due to the progressive nature of disease, the animal was removed from study on Day 21.

MCT = assay: Example 5: neoadjuvant prednisolone action (tumor change between screening and immediate pre-treatment evaluation); format: in vivo, Canis lupus familiaris (dog)
Excerpt: as §1, §2

[2] = following 24 h neoadjuvant prednisolone, dog C05-T-17
[3] = per case (one dog tumor per line), negative = increase

## C[C@]12C=CC(=O)C=C1CC[C@@H]1[C@@H]2[C@@H](O)C[C@@]2(C)[C@H]1CC[C@]2(O)C(=O)CO [prednisolone]
[1]
  Effect of oral prednisolone on drug (Compound 1) action: limited or no suppressive effects
MCT; Mean of cases
  RECIST reduction following 24 h prednisolone administration, Mean: 5%
  Tumor vol (cm^3) reduction following 24 h prednisolone administration, Mean: 27%
MCT; Median of cases
  RECIST reduction following 24 h prednisolone administration, Median: 6%
  Tumor vol (cm^3) reduction following 24 h prednisolone administration, Median: 31%
MCT; [2]
  Decrease in RECIST measure from screening to pre-treatment evaluation: 6%
  Decrease in tumor volume from screening to pre-treatment evaluation: 31%
MCT; [3]
  Tumor response following 24 h prednisolone administration (screening to immediate pre-treatment): RECIST reduction: −5% and 8% and −23% and 39% and −12% and 0% and 16% and −8% and 28% and 12% and 20% and 6% and 34% and −26% and −20%
  Tumor response following 24 h prednisolone administration (screening to immediate pre-treatment): Tumor vol (cm^3) reduction: 23% and 62% and −36% and 71% and 61% and 13% and 59% and 35% and 45% and 27% and 31% and 76% and −118% and 14%
